ChEMBL document CHEMBL4507291 (2021)

Assays:
[1] = target: Histamine H3 receptor (Homo sapiens) (UniProt Q9Y5N1); details: Compound concentration 10.0 uM
[2] = target: Insulin-like growth factor 1 receptor (Homo sapiens) (UniProt P08069); assay: IGF1R Kinase screen; details: Compound concentration 1.0 uM
[3] = target: Ephrin type-A receptor 4 (Homo sapiens) (UniProt P54764); assay: EPHA4 Kinase screen; details: Compound concentration 1.0 uM
[4] = target: Prostacyclin receptor (Homo sapiens) (UniProt P43119); assay: Prostanoid IP Eurofins-Panlabs radioligand binding assay; details: Compound concentration 10.0 uM
Prostacyclin receptor (Homo sapiens), sequence (P43119 whole entry): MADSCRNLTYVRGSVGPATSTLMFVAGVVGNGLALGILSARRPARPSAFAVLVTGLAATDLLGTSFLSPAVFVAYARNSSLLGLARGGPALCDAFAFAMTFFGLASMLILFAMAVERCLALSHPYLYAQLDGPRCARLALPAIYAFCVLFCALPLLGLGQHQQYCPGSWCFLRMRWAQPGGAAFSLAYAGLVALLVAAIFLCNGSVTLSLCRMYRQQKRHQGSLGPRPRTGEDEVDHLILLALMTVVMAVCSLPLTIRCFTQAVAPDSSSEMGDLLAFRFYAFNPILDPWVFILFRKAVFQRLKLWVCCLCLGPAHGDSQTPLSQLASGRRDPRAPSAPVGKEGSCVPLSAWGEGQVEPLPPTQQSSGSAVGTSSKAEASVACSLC

[5] = target: Ribosomal protein S6 kinase alpha-3 (Homo sapiens) (UniProt P51812); assay: RPS6KA3 (RSK2) Kinase screen; details: Compound concentration 1.0 uM
Ribosomal protein S6 kinase alpha-3 (Homo sapiens), sequence (P51812 whole entry): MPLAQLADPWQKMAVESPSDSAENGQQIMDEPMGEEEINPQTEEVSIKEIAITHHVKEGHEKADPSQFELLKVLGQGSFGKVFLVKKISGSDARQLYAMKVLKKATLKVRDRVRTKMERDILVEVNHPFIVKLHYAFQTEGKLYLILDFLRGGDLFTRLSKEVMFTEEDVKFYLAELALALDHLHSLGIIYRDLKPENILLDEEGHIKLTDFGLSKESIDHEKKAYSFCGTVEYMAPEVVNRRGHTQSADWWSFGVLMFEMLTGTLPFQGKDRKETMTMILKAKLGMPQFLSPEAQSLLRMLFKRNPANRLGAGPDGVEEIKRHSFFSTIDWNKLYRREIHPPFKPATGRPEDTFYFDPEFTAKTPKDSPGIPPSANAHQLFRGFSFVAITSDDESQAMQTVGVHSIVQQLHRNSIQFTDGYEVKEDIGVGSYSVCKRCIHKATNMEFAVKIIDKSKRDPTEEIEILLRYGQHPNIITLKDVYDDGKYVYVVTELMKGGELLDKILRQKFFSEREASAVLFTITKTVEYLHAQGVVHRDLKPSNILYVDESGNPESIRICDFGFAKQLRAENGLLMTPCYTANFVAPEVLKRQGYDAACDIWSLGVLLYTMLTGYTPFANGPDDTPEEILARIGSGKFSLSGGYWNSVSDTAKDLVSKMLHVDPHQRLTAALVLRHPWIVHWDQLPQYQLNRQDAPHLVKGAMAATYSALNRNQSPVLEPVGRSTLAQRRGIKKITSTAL

[6] = target: Tyrosine-protein kinase JAK1 (Homo sapiens) (UniProt P23458); assay: JAK1 Kinase screen; details: Compound concentration 1.0 uM
[7] = target: MAP/microtubule affinity-regulating kinase 3 (Homo sapiens) (UniProt P27448); assay: Protein Serine/Threonine Kinase, MARK3 Eurofins-Panlabs enzyme assay; details: Compound concentration 10.0 uM
MAP/microtubule affinity-regulating kinase 3 (Homo sapiens), sequence (P27448 whole entry, looked up): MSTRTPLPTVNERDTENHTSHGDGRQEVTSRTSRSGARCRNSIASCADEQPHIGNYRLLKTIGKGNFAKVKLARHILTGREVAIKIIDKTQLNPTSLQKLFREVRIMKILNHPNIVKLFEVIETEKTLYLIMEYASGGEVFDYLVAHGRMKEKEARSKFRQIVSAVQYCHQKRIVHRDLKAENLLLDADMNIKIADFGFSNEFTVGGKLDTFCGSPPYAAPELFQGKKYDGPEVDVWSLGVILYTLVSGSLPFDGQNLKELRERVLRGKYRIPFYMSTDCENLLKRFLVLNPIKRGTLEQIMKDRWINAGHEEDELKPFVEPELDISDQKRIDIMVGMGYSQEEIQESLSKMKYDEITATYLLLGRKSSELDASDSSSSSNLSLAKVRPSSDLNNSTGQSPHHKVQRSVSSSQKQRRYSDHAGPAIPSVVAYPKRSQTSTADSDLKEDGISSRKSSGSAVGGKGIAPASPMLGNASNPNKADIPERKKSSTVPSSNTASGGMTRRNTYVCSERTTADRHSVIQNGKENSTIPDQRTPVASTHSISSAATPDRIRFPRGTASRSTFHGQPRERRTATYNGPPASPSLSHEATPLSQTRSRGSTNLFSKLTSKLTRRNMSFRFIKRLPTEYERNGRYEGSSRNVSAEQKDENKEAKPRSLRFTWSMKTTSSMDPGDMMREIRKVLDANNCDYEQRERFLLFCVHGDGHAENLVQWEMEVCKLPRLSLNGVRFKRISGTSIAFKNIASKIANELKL

[8] = target: Retinoic acid receptor RXR-alpha (Homo sapiens) (UniProt P19793); assay: Retinoid X Receptor RXRalpha Eurofins-Panlabs radioligand binding assay; details: Compound concentration 10.0 uM
[9] = target: Homeodomain-interacting protein kinase 2 (Homo sapiens) (UniProt Q9H2X6); assay: HIPK2 Kinase screen; details: Compound concentration 1.0 uM
[10] = target: T1, Aurora kinase C (Homo sapiens) (UniProt Q9UQB9); assay: AURKC (Aurora C) Kinase screen; details: Compound concentration 1.0 uM
T1 sequence (whole entry): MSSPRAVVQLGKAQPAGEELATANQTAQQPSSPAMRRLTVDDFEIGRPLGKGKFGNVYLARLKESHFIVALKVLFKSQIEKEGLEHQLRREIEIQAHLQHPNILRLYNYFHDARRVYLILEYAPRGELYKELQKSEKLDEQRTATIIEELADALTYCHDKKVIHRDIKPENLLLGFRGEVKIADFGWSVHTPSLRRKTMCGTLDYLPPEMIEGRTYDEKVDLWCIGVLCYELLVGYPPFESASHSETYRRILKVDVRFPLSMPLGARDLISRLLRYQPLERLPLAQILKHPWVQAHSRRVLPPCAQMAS

[11] = target: T2, Mitogen-activated protein kinase kinase kinase 7 (Homo sapiens) (UniProt O43318); assay: MAP3K7/MAP3K7IP1 (TAK1-TAB1) Kinase screen; details: Compound concentration 1.0 uM
T2 sequence (whole entry): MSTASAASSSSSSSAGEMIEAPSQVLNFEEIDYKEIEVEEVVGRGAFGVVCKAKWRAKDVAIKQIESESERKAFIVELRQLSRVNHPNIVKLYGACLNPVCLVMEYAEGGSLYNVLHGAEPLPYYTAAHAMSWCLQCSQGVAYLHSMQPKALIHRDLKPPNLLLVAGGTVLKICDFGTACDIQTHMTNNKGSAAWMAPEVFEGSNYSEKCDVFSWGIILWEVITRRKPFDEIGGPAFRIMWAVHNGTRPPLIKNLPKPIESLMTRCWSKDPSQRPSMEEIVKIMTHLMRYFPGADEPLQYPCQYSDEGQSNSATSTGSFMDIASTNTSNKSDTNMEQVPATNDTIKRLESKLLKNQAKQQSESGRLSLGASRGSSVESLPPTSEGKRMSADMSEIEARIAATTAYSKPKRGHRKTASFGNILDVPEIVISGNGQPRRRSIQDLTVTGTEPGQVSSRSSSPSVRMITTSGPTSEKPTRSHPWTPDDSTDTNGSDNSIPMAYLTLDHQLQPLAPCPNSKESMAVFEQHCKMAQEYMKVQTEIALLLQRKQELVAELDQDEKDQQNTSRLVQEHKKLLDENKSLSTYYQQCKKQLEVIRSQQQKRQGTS

[12] = target: G protein-coupled receptor kinase 5 (Homo sapiens) (UniProt P34947); assay: GRK5 Kinase screen; details: Compound concentration 1.0 uM
G protein-coupled receptor kinase 5 (Homo sapiens), sequence (P34947 whole entry, looked up): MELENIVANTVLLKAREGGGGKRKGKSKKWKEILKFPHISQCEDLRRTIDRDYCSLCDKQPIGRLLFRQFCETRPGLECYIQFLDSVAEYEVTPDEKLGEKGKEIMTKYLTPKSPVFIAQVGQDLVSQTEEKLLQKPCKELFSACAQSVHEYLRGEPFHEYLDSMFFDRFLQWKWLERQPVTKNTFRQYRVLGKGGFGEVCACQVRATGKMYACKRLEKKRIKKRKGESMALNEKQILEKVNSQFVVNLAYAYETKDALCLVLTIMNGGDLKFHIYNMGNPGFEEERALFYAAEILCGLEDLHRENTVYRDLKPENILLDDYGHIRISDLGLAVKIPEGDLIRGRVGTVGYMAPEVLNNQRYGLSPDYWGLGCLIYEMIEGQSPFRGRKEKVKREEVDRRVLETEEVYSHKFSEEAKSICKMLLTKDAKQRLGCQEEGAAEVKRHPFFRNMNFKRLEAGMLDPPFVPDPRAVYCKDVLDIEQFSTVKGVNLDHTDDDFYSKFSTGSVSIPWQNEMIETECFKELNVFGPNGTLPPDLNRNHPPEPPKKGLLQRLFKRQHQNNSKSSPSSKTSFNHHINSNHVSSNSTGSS

[13] = target: Peroxisome proliferator-activated receptor alpha (Homo sapiens) (UniProt Q07869); assay: PPARalpha Eurofins-Panlabs radioligand binding assay; details: Compound concentration 10.0 uM
Peroxisome proliferator-activated receptor alpha (Homo sapiens), sequence (Q07869 whole entry): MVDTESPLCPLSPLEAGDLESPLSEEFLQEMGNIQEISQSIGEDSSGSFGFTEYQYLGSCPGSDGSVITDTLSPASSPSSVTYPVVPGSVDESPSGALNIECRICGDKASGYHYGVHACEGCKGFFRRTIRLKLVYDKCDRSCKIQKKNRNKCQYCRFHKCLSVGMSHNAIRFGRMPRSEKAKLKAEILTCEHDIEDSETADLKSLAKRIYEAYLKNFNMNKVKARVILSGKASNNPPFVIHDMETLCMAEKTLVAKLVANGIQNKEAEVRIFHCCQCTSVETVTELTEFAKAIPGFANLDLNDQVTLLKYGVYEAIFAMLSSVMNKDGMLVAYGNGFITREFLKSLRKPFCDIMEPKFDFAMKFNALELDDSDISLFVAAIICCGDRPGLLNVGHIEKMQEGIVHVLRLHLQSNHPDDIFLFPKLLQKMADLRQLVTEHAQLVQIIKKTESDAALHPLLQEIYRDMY

[14] = system: RAF proto-oncogene serine/threonine-protein kinase (Homo sapiens), P04049 [Y340D,Y341D]; assay: RAF1 (cRAF) Y340D Y341D Kinase screen; details: Compound concentration 1.0 uM
RAF proto-oncogene serine/threonine-protein kinase (Homo sapiens), P04049 [Y340D,Y341D], sequence (P04049 whole entry Y340D/Y341D): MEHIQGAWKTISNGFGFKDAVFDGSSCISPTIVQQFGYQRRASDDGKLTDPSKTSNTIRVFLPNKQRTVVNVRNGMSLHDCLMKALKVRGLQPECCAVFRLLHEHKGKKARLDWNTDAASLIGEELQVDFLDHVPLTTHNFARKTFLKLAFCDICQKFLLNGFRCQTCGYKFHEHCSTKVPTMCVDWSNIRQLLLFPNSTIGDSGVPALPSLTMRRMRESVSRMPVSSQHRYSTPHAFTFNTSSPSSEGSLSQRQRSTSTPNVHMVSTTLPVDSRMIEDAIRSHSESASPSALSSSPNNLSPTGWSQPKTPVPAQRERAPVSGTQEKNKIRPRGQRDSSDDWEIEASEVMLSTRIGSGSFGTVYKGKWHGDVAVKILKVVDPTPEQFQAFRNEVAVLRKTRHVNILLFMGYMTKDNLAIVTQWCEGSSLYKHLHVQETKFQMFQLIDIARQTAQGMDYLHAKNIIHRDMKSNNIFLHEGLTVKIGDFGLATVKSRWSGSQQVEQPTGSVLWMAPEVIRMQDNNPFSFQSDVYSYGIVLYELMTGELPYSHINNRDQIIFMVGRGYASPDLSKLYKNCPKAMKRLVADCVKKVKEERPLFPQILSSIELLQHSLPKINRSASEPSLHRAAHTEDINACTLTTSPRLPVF

[15] = target: PI3-kinase p110-alpha/p85-alpha (Homo sapiens) (UniProt P27986+P42336); assay: PIK3CA/PIK3R1 (p110 alpha/p85 alpha) Kinase screen; type: protein-complex assay; details: Compound concentration 1.0 uM
[16] = target: T3, Ephrin type-B receptor 3 (Homo sapiens) (UniProt P54753); assay: EPHB3 Kinase screen; details: Compound concentration 1.0 uM
T3 sequence (whole entry): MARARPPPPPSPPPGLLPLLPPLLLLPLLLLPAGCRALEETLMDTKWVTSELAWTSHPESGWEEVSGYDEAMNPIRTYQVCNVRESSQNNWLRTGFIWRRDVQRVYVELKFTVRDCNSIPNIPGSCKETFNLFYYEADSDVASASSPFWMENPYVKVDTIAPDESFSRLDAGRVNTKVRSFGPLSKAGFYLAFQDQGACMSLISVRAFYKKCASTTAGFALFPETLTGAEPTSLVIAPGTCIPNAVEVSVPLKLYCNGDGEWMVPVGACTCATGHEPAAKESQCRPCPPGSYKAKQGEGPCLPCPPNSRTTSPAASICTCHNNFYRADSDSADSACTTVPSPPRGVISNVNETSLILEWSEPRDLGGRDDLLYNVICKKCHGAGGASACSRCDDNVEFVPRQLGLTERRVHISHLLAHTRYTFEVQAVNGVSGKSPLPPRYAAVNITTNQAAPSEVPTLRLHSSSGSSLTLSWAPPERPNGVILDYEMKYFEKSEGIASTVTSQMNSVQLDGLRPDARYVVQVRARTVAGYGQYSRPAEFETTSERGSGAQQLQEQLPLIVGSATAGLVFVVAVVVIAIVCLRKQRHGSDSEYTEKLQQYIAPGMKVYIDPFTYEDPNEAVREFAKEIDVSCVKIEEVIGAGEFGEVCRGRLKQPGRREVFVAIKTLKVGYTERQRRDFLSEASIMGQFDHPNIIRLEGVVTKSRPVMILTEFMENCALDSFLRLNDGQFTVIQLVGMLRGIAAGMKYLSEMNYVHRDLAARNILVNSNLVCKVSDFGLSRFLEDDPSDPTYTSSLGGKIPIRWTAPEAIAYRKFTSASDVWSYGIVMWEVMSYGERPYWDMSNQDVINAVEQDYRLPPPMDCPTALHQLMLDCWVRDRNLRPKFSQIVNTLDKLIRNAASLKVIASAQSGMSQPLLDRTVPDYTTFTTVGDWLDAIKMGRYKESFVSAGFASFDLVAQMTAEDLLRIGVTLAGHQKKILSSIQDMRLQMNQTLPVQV

Measured: inhibition

Insulin-like growth factor 1 receptor (Homo sapiens), sequence (P08069 31-736 limits assumed): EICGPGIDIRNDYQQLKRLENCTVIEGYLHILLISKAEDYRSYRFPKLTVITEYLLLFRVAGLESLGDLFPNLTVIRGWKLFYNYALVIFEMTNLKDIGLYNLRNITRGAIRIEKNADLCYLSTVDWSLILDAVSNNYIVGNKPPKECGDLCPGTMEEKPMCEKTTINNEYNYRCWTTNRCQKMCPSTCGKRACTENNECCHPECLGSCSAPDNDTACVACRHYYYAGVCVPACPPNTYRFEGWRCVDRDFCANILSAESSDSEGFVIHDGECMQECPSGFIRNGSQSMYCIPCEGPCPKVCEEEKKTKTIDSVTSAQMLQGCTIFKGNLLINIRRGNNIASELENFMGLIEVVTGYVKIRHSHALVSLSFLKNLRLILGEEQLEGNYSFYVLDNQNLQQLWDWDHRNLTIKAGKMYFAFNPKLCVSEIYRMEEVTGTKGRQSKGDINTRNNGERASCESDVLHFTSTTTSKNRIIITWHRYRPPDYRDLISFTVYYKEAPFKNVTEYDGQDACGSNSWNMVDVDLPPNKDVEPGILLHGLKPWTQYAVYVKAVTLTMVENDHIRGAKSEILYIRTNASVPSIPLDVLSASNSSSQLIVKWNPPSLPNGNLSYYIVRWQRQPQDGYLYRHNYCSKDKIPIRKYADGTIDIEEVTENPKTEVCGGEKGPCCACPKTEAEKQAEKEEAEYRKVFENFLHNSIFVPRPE
Insulin-like growth factor 1 receptor (Homo sapiens), sequence (P08069 741-1367 limits assumed): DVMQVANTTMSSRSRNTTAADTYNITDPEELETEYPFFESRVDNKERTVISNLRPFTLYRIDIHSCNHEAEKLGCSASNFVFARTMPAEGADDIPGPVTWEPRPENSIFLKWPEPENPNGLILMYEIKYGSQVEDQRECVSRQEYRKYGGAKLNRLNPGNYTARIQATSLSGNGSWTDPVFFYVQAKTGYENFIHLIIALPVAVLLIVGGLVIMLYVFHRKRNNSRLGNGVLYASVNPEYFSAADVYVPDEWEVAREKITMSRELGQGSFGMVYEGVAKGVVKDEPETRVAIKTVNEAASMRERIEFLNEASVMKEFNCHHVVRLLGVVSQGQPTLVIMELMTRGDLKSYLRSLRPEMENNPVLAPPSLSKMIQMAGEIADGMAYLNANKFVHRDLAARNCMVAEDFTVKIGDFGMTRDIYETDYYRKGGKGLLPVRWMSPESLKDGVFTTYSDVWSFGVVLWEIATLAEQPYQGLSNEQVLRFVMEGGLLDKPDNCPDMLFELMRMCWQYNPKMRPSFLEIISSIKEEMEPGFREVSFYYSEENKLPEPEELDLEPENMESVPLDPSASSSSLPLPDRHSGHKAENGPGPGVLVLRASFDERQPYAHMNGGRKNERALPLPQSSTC

C[C@@H]1CN(c2cc(-c3nn(C)c4ccc(OC5(C)CC5)cc34)ncn2)C[C@H](C)O1 [MLi-2-NC]
inactive: [1] -6.25%

C[C@@H]1CN(c2cc(-c3n[nH]c4ccc(OC5(C)CC5)cc34)ncn2)C[C@H](C)O1 [MLi-2]
inactive: [2] 1.96% | [3] 4.82% | [4] -9% | [5] 3.91% | [6] -2.46% | [7] 11% | [8] 4% | [9] 5.33% | [10] 1.85% | [11] -4.42% | [12] 0.0771% | [13] 10% | [14] 2.98% | [15] 3.21% | [16] 9.87%
